This note sets out measurements from ChEMBL document CHEMBL1782003, “Development and SAR of functionally selective allosteric modulators of GABAA receptors” (Bioorg Med Chem, 2011).

For orientation: solubility means the dissolved amount per volume that the medium holds. Higher therefore signals a readily soluble substance.

Each structure is given as a SMILES string. In brackets after ≈: the same amount, converted by molar mass.

The nature of the series: physchem. To be noted: DMSO.
With `COc1ccc(OC)c(-c2c(F)ccc3c(N)c4c(nc23)CN(C2CCC2)C4=O)c1`, the concentration in solution (solubility) was 1 µM (≈ 0.407 µg/mL).

For the compound `COc1ccc(OC)c(-c2cccc3c(N)c4c(nc23)CN(C)C4=O)c1`, the concentration in solution (solubility) came to 0.8 µM (≈ 0.28 µg/mL).

`CCCNC(=O)c1nnc2c(-c3cnc(OC)nc3OC)cccc2c1N` came in with a solubility of 1.9 µM (≈ 0.7 µg/mL).

As for `COc1cc(-c2c(F)ccc3c(N)c(C(=O)NC4CC4)nnc23)c(OC)nn1`, the solubility was found to be 6.2 µM (≈ 2.38 µg/mL).

Compound `COc1ccc(OC)c(-c2c(F)ccc3c(N)c4c(nc23)CN(C2CC2)C4=O)c1` had a solubility of 1 µM (≈ 0.393 µg/mL).

Regarding `COc1ccc(OC)c(-c2cccc3c(N)c4c(nc23)CN(C2CC(C)C2)C4=O)c1` (stereo not given), the solubility is 0.9 µM (≈ 0.363 µg/mL).

Regarding `CCCNC(=O)c1nnc2c(-c3cc(C)ccc3C)cccc2c1N`, the concentration in solution (solubility) came to 1.4 µM (≈ 0.468 µg/mL).

As for `CCCNC(=O)c1nnc2c(-c3cccc(C)c3)cccc2c1N`, the solubility amounted to 8 µM (≈ 2.56 µg/mL).

In the case of `COc1ncc(C)cc1-c1cccc2c(N)c(C(=O)NC3CC3)nnc12`, the concentration in solution (solubility) was 10.8 µM (≈ 3.77 µg/mL).

In turn, `CCCNC(=O)c1nnc2c(-c3ccccc3C)cccc2c1N` yielded a solubility of 26.8 µM (≈ 8.59 µg/mL).

`COc1ccc(OC)c(-c2cccc3c(N)c(C(=O)NC4CCC4)nnc23)c1` showed a solubility of 4.3 µM (≈ 1.63 µg/mL).

In turn, `COc1ccc(OC)c(-c2cccc3c(N)c(C(=O)NC4CC4)nnc23)c1` displayed a solubility of 8.9 µM (≈ 3.24 µg/mL).

Consider `CCCNC(=O)c1nnc2c(-c3cc(C)ccc3OC)cccc2c1N`, for which the solubility worked out at 8.3 µM (≈ 2.91 µg/mL).

Compound `COc1ccc(OC)c(-c2cccc3c(N)c4c(nc23)CN(C2CC2)C4=O)c1` registered a solubility of 4.9 µM (≈ 1.84 µg/mL).

`CCCNC(=O)c1nnc2c(-c3ccc(C)cc3C)cccc2c1N` registered a solubility of 0.8 µM (≈ 0.268 µg/mL).

For the compound `COc1ccc(OC)c(-c2cccc3c(N)c4c(nc23)CN(C2CCCC2)C4=O)c1`, the concentration in solution (solubility) was 2.9 µM (≈ 1.17 µg/mL).

For the compound `COc1ccc(OC)c(-c2cccc3c(N)c(C(=O)NCCCO)nnc23)c1`, the solubility amounted to 11 µM (≈ 4.21 µg/mL).

On to `CCN1Cc2nc3c(-c4cc(OC)ccc4OC)c(F)ccc3c(N)c2C1=O`, for which the concentration in solution (solubility) was 0.3 µM (≈ 0.114 µg/mL).

In turn, `CCCN1Cc2nc3c(CC(C)(C)C)cccc3c(N)c2C1=O` gave a solubility of 3.4 µM (≈ 1.06 µg/mL).

In turn, `CCC(C)NC(=O)c1nnc2c(-c3cc(OC)ccc3OC)cccc2c1N` (stereo not given) gave a solubility of 1.2 µM (≈ 0.457 µg/mL).

For `COc1ccc(OC)c(-c2cccc3c(N)c4c(nc23)CN(C2CCC2)C4=O)c1`, the concentration in solution (solubility) came to 2.3 µM (≈ 0.896 µg/mL).

In turn, `COc1ccc(OC)c(-c2cccc3c(N)c(C(=O)NCCC(F)(F)F)nnc23)c1` showed a solubility of 2.8 µM (≈ 1.18 µg/mL).

The compound `CCCNC(=O)c1nnc2c(-c3ccccc3)cccc2c1N` registered a solubility of 9.5 µM (≈ 2.91 µg/mL).

The compound `CCCNC(=O)c1nnc2c(-c3cc(OC)ccc3OC)c(F)ccc2c1N` returned a solubility of 3.3 µM (≈ 1.27 µg/mL).

Compound `CCN1Cc2nc3c(-c4cc(OC)ccc4OC)cccc3c(N)c2C1=O` gave a solubility of 0.5 µM (≈ 0.182 µg/mL).

`COc1ccc(OC)c(-c2c(F)ccc3c(N)c(C(=O)NC4CC4)nnc23)c1` returned a solubility of 8.8 µM (≈ 3.37 µg/mL).

`CCNC(=O)c1nnc2c(-c3cc(OC)ccc3OC)c(F)ccc2c1N`: the concentration in solution (solubility) came to 5 µM (≈ 1.85 µg/mL).

Compound `CCNC(=O)c1nnc2c(-c3cc(OC)ccc3OC)cccc2c1N` displayed a solubility of 8.2 µM (≈ 2.89 µg/mL).

The compound `CCCNC(=O)c1nnc2c(-c3cc(OC)ccc3OC)cccc2c1N` [AZD6280] gave a solubility of 3.9 µM (≈ 1.43 µg/mL).

Consider `COc1ccc(OC)c(-c2c(F)ccc3c(N)c(C(=O)NC(C)C)nnc23)c1`, for which the solubility came out at 7.8 µM (≈ 3 µg/mL).

As for `COc1ccc(OC)c(-c2cccc3c(N)c(C(=O)NC4CC(C)C4)nnc23)c1` (stereo not given), the solubility amounted to 1.8 µM (≈ 0.706 µg/mL).

The compound `CCCNC(=O)c1nnc2c(-c3cnccc3OC)cccc2c1N` yielded a solubility of 28.1 µM (≈ 9.48 µg/mL).

Turning to `CCCNC(=O)c1nnc2c(CC(C)C)cccc2c1N`, the solubility came out at 4.6 µM (≈ 1.32 µg/mL).

Regarding `CCC(C)(C)N1Cc2nc3c(-c4cc(OC)ccc4OC)cccc3c(N)c2C1=O`, the solubility is 2 µM (≈ 0.811 µg/mL).

Regarding `CNC(=O)c1nnc2c(-c3cc(OC)ccc3OC)cccc2c1N`, the solubility is 2.6 µM (≈ 0.88 µg/mL).

`COc1ccc(OC)c(-c2cccc3c(N)c(C(=O)NC(C)C)nnc23)c1` came in with a solubility of 4.7 µM (≈ 1.72 µg/mL).

`CCCNC(=O)c1nnc2c(-c3c(F)cccc3OC)cccc2c1N` [AZD7325] returned a solubility of 7.6 µM (≈ 2.69 µg/mL).

Take `COc1ccc(OC)c(-c2c(F)ccc3c(N)c(C(=O)NC4CCC4)nnc23)c1`: the concentration in solution (solubility) came to 2.8 µM (≈ 1.11 µg/mL).

For `COc1ccc(-c2c(F)ccc3c(N)c(C(=O)NC4CC4)nnc23)c(OC)n1`, the concentration in solution (solubility) came to 2 µM (≈ 0.767 µg/mL).

Take `CCCNC(=O)c1nnc2c(-c3cc(C)cc(C)c3)cccc2c1N`: the solubility turned out to be 0.8 µM (≈ 0.268 µg/mL).
